The results in this text go back to PMC5374710, “Discovery of the first dual GSK3β inhibitor/Nrf2 inducer. A new multitarget therapeutic strategy for Alzheimer’s disease” (Scientific Reports, 2017).

Each structure is given as a SMILES string. Read-outs that look alike come from different tables or passages of the source.

One assay relates to Nrf2. The assay can be described thus: Nrf2-dependent luciferase reporter assay in AREc32 cell line. The assay is classed as cell-based. The following applies: for EC50: AREc32 cells, read-out: CD (concentration required to double the luciferase reporter activity). The procedure:
Thereafter, we tested the ability of the compounds to induce the Nrf2 transcription factor. We used an Nrf2-dependent luciferase reporter assay in the AREc32 cell line[45]. Cells were cultured for 24 h and then treated with increasing concentrations of compounds 5a–t (0.3, 3, 10 and 30 μM), including the known inducer sulforaphane, containing an isothiocyanate motive as positive control.
AREc32 cells were plated in 96-well white plates (2 × 10^4 cells/well). After 24 h, cells were incubated with increasing concentrations of each compound in duplicate for 24 h. AREc32 cells express constitutively the plasmid pGL-8xARE that implements 8 copies of the EpRE sequences followed by luciferase reporter gen. Therefore, Nrf2 induction is related to the activation of EpRE sequences, expressing luciferase at the same extent as EpRE sequences are activated. The Luciferase Assay System (Promega E1500), was used according to provider protocol and luminescence was quantified in an Orion II microplate luminometer (Berthold, Germany). Fold induction of luciferase activity was normalized to basal conditions. Data are expressed as CD values, expressing the concentration required to double the luciferase activity. CD values are calculated from dose-response curves generated from fold induction of control conditions vs. inducer concentration and fitted by non-linear regression and data interpolated to 2-fold induction concentration.
Breast cancer cells stably transfected to express luciferase after EpRE sequences MCF-7/AREc32 named AREc32, were kindly provided by Dr. C. Roland Wolf (University of Dundee, UK).^14 AREc32 cells were maintained in DMEM with high glucose-glutamax, supplemented with 10 % FBS, 1 % penicillin-streptomycin (10,000 units), and geneticin (0.8 mg/ml G418) at 37 °C and in a 5 % CO2- air atmosphere.^14
AREc32 cells are constitutively transfected with the pGL-8xARE luciferase reporter gene, inserted after EpRE sequences. Thus, Nrf2 translocation to the nucleus induces the activation of the EpRE sequences, expressing their target phase II antioxidant genes, and expressing luciferase at the same extent.^15 AREc32 cells were plated in 96-well white plates (2X10^4 cells/well). After 24 h, cells were incubated with increasing concentrations of each compound in duplicate for 24 h (dissolved in DMSO to give a final 0.1 % vol/vol concentration of vehicle). Each plate included non-treated cells as basal luciferase expression and tBHQ (10 µM) as positive control. TBHQ is a potent Nrf2 inducer used as control in the development of the AREc32 cells.^14 Transfected clones are selected using G418. AREc32 cells express constitutively the plasmid pGL-8xARE that implements 8 copies of the EpRE sequences followed by a luciferase reporter gene. Therefore, the induction of Nrf2 is proportional to the activation of EpRE sequences, expressing luciferase at the same extent as EpRE sequences are activated. Luciferase production is then assessed by a bioluminescence assay. The Luciferase Assay System (Promega E1500), was used according to the Promega protocol and luminescence was quantified in an Orion II microplate luminometer (Berthold, Germany). Relative Light Units (RLU) were recorded for the contents of each well. Fold induction of luciferase activity was calculated by dividing the RLU obtained for the tests wells for each treatment by the average RLU obtained for the basal conditions. Data are expressed as CD values, expressing the concentration required to double the basal luciferase activity, used to quantify the Nrf2 induction potency. CD values are calculated from dose-response curves generated from fold induction of control conditions vs. inducer concentration and fitted by non-linear regression and data interpolated to value the 2-fold induction concentration, using GraphPad Prism software (San Diego, CA, USA).

Assay [1] relates to SH-SY5Y cells. Put plainly: Neuroprotection against okadaic acid (tau hyperphosphorylation), MTT. The assay is classed as cell-based. The following applies: 1 μM, 24 h pre-incubation, 18 h co-incubation with OA 20 nM.
In assay [2] the test system is SH-SY5Y cells. The assay can be described thus: Neuroprotection against rotenone/oligomycin A (R/O), MTT. The format is cell-based. The following applies: 1 μM, 24 h pre-incubation, 24 h co-incubation with rotenone/oligomycin A 30/10 μM. As for the experimental part: Figure 5 Compounds 5a–t exert neuroprotection in in vitro models of AD. […] Then, treatments were removed and cells were co-incubated with each treatment and okadaic acid for 18 h or R/O for 24 h. Cell viability was measured by the MTT reduction assay. Values are expressed as mean ± SEM of five independent experiments in triplicate. ***p < 0.001; **p < 0.01 respect to toxic stimuli treated cells, considered as 0% of protection.
As stated in the Introduction, oxidative stress is considered one of the main causes of neuronal death in AD. Therefore, we were interested in evaluating the potential antioxidant activity of compounds 5a–t in a model of oxidative stress and energy depletion, which in turn increase cell death. For this purpose, we selected the combination of rotenone (30 μM) and oligomycin A (10 μM) (R/O) to induce neurotoxicity as a model system[23][40] to evaluate the potential neuroprotective activity of the compounds. Melatonin, a well-known antioxidant natural compound, was included as a positive control.
(§1) A pre- and co-incubation protocol was followed. Cells were pre-incubated with the corresponding compound at 1 μM in neuroblastoma cells culture medium. After 24 h, medium was removed and replaced with 1% FBS neuroblastoma culture media containing the corresponding compound (1 μM) and the toxic stimuli, the mixture of rotenone and oligomycin A (30 μM/10 μM respectively) or okadaic acid at 20 nM. Cells were co-incubated for further 24 h with the rotenone and oligomycin A solution or 18 h with the okadaic acid solution. Control cells were incubated with the same amount of DMSO without any drug. After the co-incubation period, cell viability was assessed by the MTT-reduction method.
as §1, with “A pre” for “A pre-”, “1 µM” for “1 μM”, “compound at 1 µM” for “compound (1 μM)”, “stimuli, namely a” for “stimuli, the”, “(30 µM / 10 µM” for “(30 μM/10 μM”, “drug. […]” for “drug.”
The percentage of protection was calculated as follows: the percentage of cell survival obtained with the toxic stimuli-treated cells subtracted to 100 was normalized to 100 % of cell death. The percentage of protection was obtained by subtracting the percentage of cell death in presence of the tested compound to 100%.

Assay [3] addresses T1, Nrf2-Keap1 protein-protein interaction (Homo sapiens, UniProt Q14145).
T1 construct: a solution of the Keap1 Kelch domain (200 nM)
Put plainly: Fluorescence polarization assay of Nrf2-Keap1 interaction. The following applies: ligand concentration 10 µM; read-out: FP % Inhibition (± SEM). The format is binding. (Fluorescence polarisation rises when a labelled molecule tumbles more slowly, as on binding a larger partner.)
Procedure: Data are presented the means ± SEM of two experiments performed in triplicate.
The FP assay was carried out as previously described.^16,17 Inhibitors (10 µM) were plated onto untreated Corning® black 96 well plates containing a solution of the Keap1 Kelch domain (200 nM) and the fluorescent peptide FITC-β-DEETGEF-OH (1 nM) in Dulbecco’s Phosphate Buffered Saline (DPBS) at pH 7.4 (11% final DMSO concentration, 100 µL final volume). Following a 30 min incubation under slow agitation and away from light at room temperature, the plates were transferred to a PHERAstar microplate reader (BMG Labtech, Ortenberg, Germany) and the fluorescence polarisation was recorded. All measurements were recorded in triplicate.

Another assay has as its target T2, Keap1 Kelch domain (Homo sapiens, UniProt Q14145).
T2 construct: A solution of the Keap1 Kelch domain protein (5 µM)
The assay can be described thus: Differential scanning fluorimetry assay. The assay is classed as binding. The following applies: ligand concentration 10 µM. On the technique in general: In DSF a fluorescence change marks the thermal transition of the protein.

T2 sequence (Q14145 321-609 limits assumed): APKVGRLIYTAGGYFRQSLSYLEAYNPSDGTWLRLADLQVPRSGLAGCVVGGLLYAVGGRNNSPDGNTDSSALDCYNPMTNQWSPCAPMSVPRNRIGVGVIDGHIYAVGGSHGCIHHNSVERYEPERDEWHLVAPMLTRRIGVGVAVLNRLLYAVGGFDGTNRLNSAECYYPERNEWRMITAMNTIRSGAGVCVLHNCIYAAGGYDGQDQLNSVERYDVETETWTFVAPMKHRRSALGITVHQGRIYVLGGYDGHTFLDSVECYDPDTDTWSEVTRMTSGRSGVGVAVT
T1 sequence (Q14145 321-609 limits assumed): as above
Procedure for Keap1 Kelch domain: A solution of the Keap1 Kelch domain protein (5 µM) and detection dye SYPRO® orange (5X) in DPBS at pH 7.4 was added onto a qPCR plate containing the compound inhibitor (10 µM, 10% final DMSO concentration, 40 µL final volume). The plate was sealed using an optical foil seal and covered with aluminum foil to protect the dye from light. The plate was then transferred to a plate centrifuge and spun down briefly (200 G, 1 min, room temperature) to remove any bubbles and collect the solution at the bottom of the wells. Following a 30 min incubation at room temperature, the plate was placed into a 7500 Real time PCR machine and the fluorescence intensity at an excitation of 465 nm and emission of 580 nm was recorded during a temperature scan from 25 °C to 95 °C with a temperature ramping rate of 1 °C/min. All measurements were run in triplicate. Life Technologies software was used to set up the run on 7500 Software v.2.0.0 and the initial data processing was carried out on Protein thermal shift solution software. The raw data were exported to MS Excel and analysis was performed using a custom script provided by the Structural Genomics Consortium Oxford.^18 The temperature range over which the protein unfolding occurred was selected and the maximum and minimum (at temperatures below the maximum intensity) fluorescence intensities within this range were determined. The processed data were fitted to the Boltzmann equation by non-linear regression using the Origin Pro software.

For `Cc1[nH]nc2c1C(c1ccccc1)C(C#N)=C(N)O2` (centres unmarked) [Compound 5a, 6-Amino-3-methyl-4-phenyl-2,4-dihydropyrano[2,3-c]pyrazole-5-carbonitrile], the EC50 in the assay on Nrf2 (Arec32, 24 h) worked out at 20.5 ± 3.4 µM. The “Percentage of protection against okadaic acid toxicity” value in the assay on SH-SY5Y cells [1] came to 27.7%. As to `COc1ccccc1C1C(C#N)=C(N)Oc2n[nH]c(C)c21` (centres unmarked) [Compound 5b, 6-Amino-4-(2-methoxyphenyl)-3-methyl-2,4-dihydropyrano[2,3-c]pyrazole-5-carbonitrile], in the assay with Nrf2 (Arec32, 24 h), the EC50 was above 30 µM. In the assay with SH-SY5Y cells [2], the “Percentage of protection against R/O toxicity” value is 39.1%. On to `COc1cccc(C2C(C#N)=C(N)Oc3n[nH]c(C)c32)c1` (centres unmarked) [Compound 5c, 6-Amino-4-(3-methoxyphenyl)-3-methyl-2,4-dihydropyrano[2,3-c]pyrazole-5-carbonitrile], for which the inhibition at 10 µM in assay [3] was below 0%. Besides, the EC50 with Nrf2 (Arec32, 24 h) came out at 11.3 ± 1.3 µM. Moreover, in the assay with SH-SY5Y cells [2], the “Percentage of protection against R/O toxicity” value was found to be 55.3%. Further, on Keap1 Kelch domain, the ΔTm at 10 µM was -0.43 ± 0.49 °C. With `COc1ccc(C2C(C#N)=C(N)Oc3n[nH]c(C)c32)cc1` (centres unmarked) [Compound 5d, 6-Amino-4-(4-methoxyphenyl)-3-methyl-2,4-dihydropyrano[2,3-c]pyrazole-5-carbonitrile], the EC50 in the assay with Nrf2 (Arec32, 24 h) stood at 25.3 ± 2.4 µM. The “Percentage of protection against R/O toxicity” value in the assay on SH-SY5Y cells [2] turned out to be 38.8%. For the molecule `Cc1ccccc1C1C(C#N)=C(N)Oc2[nH]nc(C)c21` (centres unmarked) [Compound 5e, 6-Amino-3-methyl-4-(2-methylphenyl)-2,4-dihydropyrano[2,3-c]pyrazole-5-carbonitrile], the EC50 in the assay on Nrf2 (Arec32, 24 h) is above 30 µM. In the case of `Cc1cccc(C2C(C#N)=C(N)Oc3n[nH]c(C)c32)c1` (centres unmarked) [Compound 5f, 6-Amino-3-methyl-4-(3-methylphenyl)-2,4-dihydropyrano[2,3-c]pyrazole-5-carbonitrile], the EC50 with Nrf2 (Arec32, 24 h) was 14.1 ± 2.1 µM. The “Percentage of protection against okadaic acid toxicity” value in the assay with SH-SY5Y cells [1] is reported as “over 50%”. Regarding `Cc1ccc(C2C(C#N)=C(N)Oc3[nH]nc(C)c32)cc1` (centres unmarked) [Compound 5g, 6-Amino-3-methyl-4-(4-methylphenyl)-2,4-dihydropyrano[2,3-c]pyrazole-5-carbonitrile], in the assay with Nrf2 (Arec32, 24 h), the EC50 is 25.4 ± 2.5 µM. Turning to `Cc1n[nH]c2c1C(c1ccc(F)cc1)C(C#N)=C(N)O2` (centres unmarked) [Compound 5h, 6-Amino-4-(4-fluorophenyl)-3-methyl-2,4-dihydropyrano[2,3-c]pyrazole-5-carbonitrile], in the assay on Nrf2 (Arec32, 24 h), the EC50 came to 14.6 ± 4 µM. Consider `Cc1n[nH]c2c1C(c1ccccc1Cl)C(C#N)=C(N)O2` (centres unmarked) [Compound 5i, 6-Amino-4-(2-chlorophenyl)-3-methyl-2,4-dihydropyrano[2,3-c]pyrazole-5-carbonitrile], for which the EC50 with Nrf2 (Arec32, 24 h) came to 23.5 ± 3.2 µM.

For the molecule `Cc1[nH]nc2c1C(c1cccc(Cl)c1)C(C#N)=C(N)O2` (centres unmarked) [Compound 5j, 6-Amino-4-(3-chlorophenyl)-3-methyl-2,4-dihydropyrano[2,3-c]pyrazole-5-carbonitrile], the EC50 in the assay on Nrf2 (Arec32, 24 h) stood at 5.38 ± 0.5 µM. As for `Cc1n[nH]c2c1C(c1ccc(Cl)cc1)C(C#N)=C(N)O2` (centres unmarked) [Compound 5k, 6-Amino-4-(4-chlorophenyl)-3-methyl-2,4-dihydropyrano[2,3-c]pyrazole-5-carbonitrile], the EC50 in the assay with Nrf2 (Arec32, 24 h) worked out at 8.31 ± 1.5 µM. On to `Cc1n[nH]c2c1C(c1ccccc1Br)C(C#N)=C(N)O2` (centres unmarked) [Compound 5l, 6-Amino-4-(2-bromophenyl)-3-methyl-2,4-dihydropyrano[2,3-c]pyrazole-5-carbonitrile], for which the EC50 with Nrf2 (Arec32, 24 h) was above 30 µM. For the same molecule, the “Percentage of protection against R/O toxicity” value with SH-SY5Y cells [2] is 24.1%. On to `Cc1[nH]nc2c1C(c1ccc(Br)cc1)C(C#N)=C(N)O2` (centres unmarked) [Compound 5m, 6-Amino-4-(4-bromophenyl)-3-methyl-2,4-dihydropyrano[2,3-c]pyrazole-5-carbonitrile], for which the inhibition at 10 µM in assay [3] is below 0%. Besides, the “Luciferase activity increase alone versus in presence of Li (10 mM)” value in the assay on Nrf2 (3 μM to 30 μM, 24 h) was “to the same extent and without statistically significant differences”. Also, the EC50 in the assay on Nrf2 (24 h) was 9.37 ± 1.4 µM; in the assay on Nrf2 (Arec32, 24 h), below 10 µM. Moreover, the shift in melting temperature (ΔTm) at 10 µM on Keap1 Kelch domain is -0.14 ± 0.35 °C. In addition, the “Percentage of protection against okadaic acid toxicity” value with SH-SY5Y cells [1] is “over 50%”.

Take `Cc1[nH]nc2c1C(c1ccccc1[N+](=O)[O-])C(C#N)=C(N)O2` (centres unmarked) [Compound 5n, 6-Amino-3-methyl-4-(2-nitrophenyl)-2,4-dihydropyrano[2,3-c]pyrazole-5-carbonitrile]: the EC50 with Nrf2 (Arec32, 24 h) stood at 11.3 ± 5.5 µM. Also, the “Percentage of protection against okadaic acid toxicity” value in the assay with SH-SY5Y cells [1] is on record as 34.7%. The matching figures for `Cc1[nH]nc2c1C(c1cccc([N+](=O)[O-])c1)C(C#N)=C(N)O2` (centres unmarked) [Compound 5o, 6-Amino-3-methyl-4-(3-nitrophenyl)-2,4-dihydropyrano[2,3-c]pyrazole-5-carbonitrile]: 18.9 ± 2.9 µM and 48%. Regarding `Cc1[nH]nc2c1C(c1ccc([N+](=O)[O-])cc1)C(C#N)=C(N)O2` (centres unmarked) [Compound 5p, 6-Amino-3-methyl-4-(4-nitrophenyl)-2,4-dihydropyrano[2,3-c]pyrazole-5-carbonitrile], the EC50 with Nrf2 (Arec32, 24 h) amounted to 15 ± 4.3 µM. For `Cc1n[nH]c2c1C(c1ccco1)C(C#N)=C(N)O2` (centres unmarked) [Compound 5q, 6-Amino-4-(furan-2-yl)-3-methyl-2,4-dihydropyrano[2,3-c]pyrazole-5-carbonitrile], the EC50 in the assay with Nrf2 (Arec32, 24 h) turned out to be 25.2 ± 2.4 µM. On the same count and under the same terms, with `Cc1n[nH]c2c1C(c1cccs1)C(C#N)=C(N)O2` (centres unmarked) [Compound 5r, 6-Amino-3-methyl-4-(thiophen-2-yl)-2,4-dihydropyrano[2,3-c]pyrazole-5-carbonitrile] the figure was 17.6 ± 8.4 µM.

Turning to `Cc1[nH]nc2c1C(c1cccnc1)C(C#N)=C(N)O2` (centres unmarked) [Compound 5s, 6-Amino-3-methyl-4-(pyridin-3-yl)-2,4-dihydropyrano[2,3-c]pyrazole-5-carbonitrile], the EC50 with Nrf2 (Arec32, 24 h) was found to be 8.91 ± 2.2 µM. Besides, the “Percentage of protection against R/O toxicity” value with SH-SY5Y cells [2] was 57.9%.

What is called inhibition is the drop in the measured response relative to a control, in per cent. As usually defined, the ΔTm is the change in melting temperature against a reference sample.
